Laboratory results reported in patent publication US8426422B2, “Apoptosis-inducing agents for the treatment of cancer and immune and autoimmune diseases” (Abbvie Inc., priority 2009, dated 2013).

Target: GST-Bcl-2 (Homo sapiens, UniProt P10415)
Experiment: Time Resolved-Fluorescence Resonance Energy Transfer (TR-FRET) Bcl-2 binding assay
Settings: GST-Bcl-2 1 nM, F-Bak peptide probe 100 nM, Tb-anti-GST 1 nM; 3 hours at room temperature; Ki by Wang's equation
Method: Determination of the utility of compounds having Formula (I) as binders to and inhibitors of anti-apoptotic Bcl-2 proteins was performed using the Time Resolved-Fluorescence Resonance Energy Transfer (TR-FRET) Assay. Tb-anti-GST antibody was purchased from Invitrogen (Catalog No. PV4216).
Representative compounds were serially diluted in dimethyl sulfoxide (DMSO) starting at 50 μM (2x starting concentration; 10% DMSO) and 10 μL were transferred into a 384-well plate. The samples are then mixed on a shaker for 1 minute and incubated for an additional 3 hours at room temperature. For each assay, the probe/antibody and protein/probe/antibody were included on each assay plate as negative and positive controls, respectively. Fluorescence was measured on the ENVISION plate reader (Perkin Elmer) using a 340/35 nm excitation filter and 520/525 (F-Bak peptide) and 495/510 nm (Tb-labeled […] antibody) emission filters. Inhibition constants (Ki) are shown in TABLE 2 below and were determined using Wang's equation (Wang Z.-X. An Exact Mathematical Expression For Describing Competitive Binding Of Two Different Ligands To A Protein Molecule. FEBS Lett. 1995, 360:111-4).
The inhibition constant (Ki) is the dissociation constant of an enzyme-inhibitor complex or a protein/small molecule complex, wherein the small molecule is inhibiting binding of one protein to another protein. So a large Ki value indicates a low binding affinity and a small Ki value indicates a high binding affinity.
The compounds are therefore expected to have utility in treatment of diseases during which anti-apoptotic Bcl-2 protein is expressed.

GST-Bcl-2, sequence (P10415 whole entry): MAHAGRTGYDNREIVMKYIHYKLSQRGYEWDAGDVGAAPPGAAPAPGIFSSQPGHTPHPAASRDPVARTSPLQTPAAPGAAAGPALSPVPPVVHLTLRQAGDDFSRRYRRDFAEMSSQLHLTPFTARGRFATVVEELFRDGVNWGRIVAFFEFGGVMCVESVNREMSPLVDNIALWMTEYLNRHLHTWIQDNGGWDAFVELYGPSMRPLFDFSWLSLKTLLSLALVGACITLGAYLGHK

| Structure (SMILES) | Ki |
| --- | --- |
| CC1(C)CCC(CN2CCN(c3ccc(C(=O)NS(=O)(=O)c4cccc(C(F)(F)F)c4)c(Oc4ccc5[nH]ccc5c4)c3)CC2)=C(c2ccc(Cl)cc2)C1 [Example 33, 4-(4-{[2-(4-chlorophenyl)-4,4-dimethylcyclohex-1-en-1-yl]methyl}piperazin-1-yl)-2-(1H-indol-5-yloxy)-N-{[3-(trifluoromethyl)phenyl]sulfonyl}benzamide] | 4.09 nM |
| CC1(C)CCC(CN2CCN(c3ccc(C(=O)NS(=O)(=O)c4cccc([N+](=O)[O-])c4)c(Oc4ccc5[nH]ccc5c4)c3)CC2)=C(c2ccc(Cl)cc2)C1 [Example 30, 4-(4-{[2-(4-chlorophenyl)-4,4-dimethylcyclohex-1-en-1-yl]methyl}piperazin-1-yl)-2-(1H-indol-5-yloxy)-N-[(3-nitrophenyl)sulfonyl]benzamide] | 0.209 nM |
| CC1(C)CCC(CN2CCN(c3ccc(C(=O)NS(=O)(=O)c4cccc(C#N)c4)c(Oc4ccc5[nH]ccc5c4)c3)CC2)=C(c2ccc(Cl)cc2)C1 [Example 32, 4-(4-{[2-(4-chlorophenyl)-4,4-dimethylcyclohex-1-en-1-yl]methyl}piperazin-1-yl)-N-[(3-cyanophenyl)sulfonyl]-2-(1H-indol-5-yloxy)benzamide] | 5.94 nM |
| O=C(NS(=O)(=O)c1cccc([N+](=O)[O-])c1)c1ccc(N2CCN(Cc3ccccc3-c3ccc(Cl)cc3)CC2)cc1Oc1ccccc1 [Example 9, 4-{4-[(4′-chloro-1,1′-biphenyl-2-yl)methyl]piperazin-1-yl}-N-[(3-nitrophenyl)sulfonyl]-2-phenoxybenzamide] | 26.5 nM |
